Source: patent publication US5191079A, “Quinolinecarboxylic acid derivatives” (priority 1990, dated 1993)
Converted amounts (≈) assume the structure as drawn. Read-outs that look alike come from different tables or passages of the source.

Columns and labels:
Type in all cases: cell-based
[1] = test system: Klebsiella pneumoniae PCI-602; test: MIC, Experiment 1; conditions: PCI602, K. pneumoniae PCI-602, Gram -, read-out: Min. inhib. concentr. (MIC)
Outline: (§1)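 Standard solutions of 1000 μg/ml were prepared for each compound. Inhibition was then scored under Japan Society of Chemotherapy conditions. S. pneumoniae used brain heart infusion preculture and horse-blood (5%) heart infusion agar. The remaining species used sensitivity test broth and agar.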

[2] = test system: Staphylococcus aureus ATCC 9144; test: MIC, Experiment 1; conditions: ATCC9144, S. aureus ATCC 9144, Gram +, read-out: Min. inhib. concentr. (MIC)
Outline: (§2)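 MIC was determined by the Japan Society of Chemotherapy agar dilution method, working from 1000 μg/ml standard solutions (DMSO or water stocks). S. pneumoniae was precultured in brain heart infusion broth and tested on heart infusion agar with 5% defibrinated horse blood. Other strains used sensitivity test broth and sensitivity test agar.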

Bacillus cereus IAM 1029 = test: MIC, Experiment 1; conditions: IAM1029, B. cereus IAM 1029, Gram +, read-out: Min. inhib. concentr. (MIC)
Outline: as §2

[3] = test system: Staphylococcus aureus FDA 243; test: MIC, Experiment 1; conditions: FDA243, S. aureus FDA 243, Gram +, read-out: Min. inhib. concentr. (MIC)
Outline: as §2

[4] = test system: Escherichia coli NIHJ JC-2; test: MIC, Experiment 1; conditions: NIHJJC2, E. coli NIHJ JC-2, Gram -, read-out: Min. inhib. concentr. (MIC)
Outline: as §1

[5] = test system: Streptococcus pyogenes Su; test: MIC, Experiment 1; conditions: S. pyogenes Su, Gram +, agar with 5% defibrinated horse blood, read-out: Min. inhib. concentr. (MIC)
Outline: (§3)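 Stocks: 5000 μg/ml in DMSO or sterile distilled water; standard: 1000 μg/ml after water dilution. Method: Japan Society of Chemotherapy.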

[6] = test system: Streptococcus pyogenes Sv; test: MIC, Experiment 1; conditions: S. pyogenes Sv, Gram +, agar with 5% defibrinated horse blood, read-out: Min. inhib. concentr. (MIC)
Outline: as §3

Enterobacter cloacae 963 = test: MIC, Experiment 1; conditions: E. cloacae 963, Gram -, read-out: Min. inhib. concentr. (MIC)
Outline: as §1

[7] = test system: Streptococcus pyogenes Cook; test: MIC, Experiment 1; conditions: S. pyogenes Cook, Gram +, agar with 5% defibrinated horse blood, read-out: Min. inhib. concentr. (MIC)
Outline: as §3

[8] = test system: Streptococcus pneumoniae IID 552; test: MIC, Experiment 1; conditions: IID552, S. pneumoniae IID 552, Gram +, agar with 5% defibrinated horse blood, read-out: Min. inhib. concentr. (MIC)
Outline: as §2

[9] = test system: Staphylococcus aureus MS-353; test: MIC, Experiment 1; conditions: MS353, S. aureus MS-353, Gram +, read-out: Min. inhib. concentr. (MIC)
Outline: as §2

[10] = test system: Micrococcus luteus ATCC 9341; test: MIC, Experiment 1; conditions: ATCC9341, M. luteus ATCC 9341, Gram +, read-out: Min. inhib. concentr. (MIC)
Outline: as §1

[11] = test system: Streptococcus pneumoniae IID 554; test: MIC, Experiment 1; conditions: IID554, S. pneumoniae IID 554, Gram +, agar with 5% defibrinated horse blood, read-out: Min. inhib. concentr. (MIC)
Outline: as §2

[12] = test system: Bacillus subtilis ATCC 6633; test: MIC, Experiment 1; conditions: ATCC6633, B. subtilis ATCC 6633, Gram +, read-out: Min. inhib. concentr. (MIC)
Outline: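 Japan Society of Chemotherapy MIC protocol. Pneumococci: BHI broth preculture, heart infusion agar plus 5% defibrinated horse blood. Staphylococcus/Bacillus: sensitivity test broth preculture, sensitivity test agar.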

[13] = test system: Acinetobacter calcoaceticus Ac 54; test: MIC, Experiment 1; conditions: AC54, A. calcoaceticus Ac 54, Gram -, read-out: Min. inhib. concentr. (MIC)
Outline: as §1

[14] = test system: Staphylococcus aureus Terajima (IID 670); test: MIC, Experiment 1; conditions: IID670, S. aureus Terajima (IID 670), Gram +, read-out: Min. inhib. concentr. (MIC)
Outline: as §2

[15] = test system: Staphylococcus aureus Cowan I (IID 975); test: MIC, Experiment 1; conditions: IID975, S. aureus Cowan I (IID 975), Gram +, read-out: Min. inhib. concentr. (MIC)
Outline: as §2

[16] = test system: Pseudomonas aeruginosa NCTC 10490; test: MIC, Experiment 1; conditions: NCTC10490, P. aeruginosa NCTC 10490, Gram -, read-out: Min. inhib. concentr. (MIC)
Outline: as §1

[17] = test system: Staphylococcus aureus FDA 209P JC-1; test: MIC, Experiment 1; conditions: FDA209P, S. aureus FDA 209P JC-1, Gram +, read-out: Min. inhib. concentr. (MIC)
Outline: as §2

[18] = test system: Proteus mirabilis IFO 3849; test: MIC, Experiment 1; conditions: IFO3849, P. mirabilis IFO 3849, Gram -, read-out: Min. inhib. concentr. (MIC)
Outline: as §1

[19] = test system: Staphylococcus aureus IID 803; test: MIC, Experiment 1; conditions: IID803, S. aureus IID 803, Gram +, read-out: Min. inhib. concentr. (MIC)
Outline: as §2

[20] = test system: clinically isolated Enterococcus faecalis; test: In vitro antibacterial activity against clinical isolates, Experiment 2; conditions: for MIC50: 50% of strains, read-out: MIC50
Outline: (§4)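 Each compound was brought to a 1000 μg/ml stock with sterilized distilled water, and MICs were measured on sensitivity test agar.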

[21] = test system: clinically isolated Enterococcus faecium; test: as above
Outline: as §4

[22] = 25 clinical strains E. faecalis
[23] = 25 clinical strains E. faecalis, 90% of strains, read-out: MIC90

CN1Cc2csc3c(C(=O)O)c(=O)c4cc(F)c(N5CCO[C@@H](CO)C5)c1c4n23 [Compound (N), 9,1-(Methylimino)methano-7-fluoro-8-[(2R)-2-hydroxymethylmorpholino]-5-oxo-5H-thiazolo[3,2-a]quinoline-4-caboxylic acid]
MIC [1]: ≤ 0.006 µg/mL | MIC [2]: ≤ 0.006 µg/mL | MIC (Bacillus cereus IAM 1029): 0.025 µg/mL (≈ 0.0596 µM) | MIC [3]: ≤ 0.006 µg/mL | MIC [4]: 0.2 µg/mL (≈ 0.477 µM) | MIC [5]: 0.025 µg/mL (≈ 0.0596 µM) | MIC [6]: 0.05 µg/mL (≈ 0.119 µM) | MIC (Enterobacter cloacae 963): 0.39 µg/mL (≈ 0.93 µM) | MIC [7]: 0.025 µg/mL (≈ 0.0596 µM) | MIC [8]: 0.025 µg/mL (≈ 0.0596 µM) | MIC [9]: 0.025 µg/mL (≈ 0.0596 µM) | MIC [10]: 0.1 µg/mL (≈ 0.238 µM) | MIC [11]: 0.05 µg/mL (≈ 0.119 µM) | MIC [12]: ≤ 0.006 µg/mL | MIC [13]: ≤ 0.006 µg/mL | MIC [14]: 0.025 µg/mL (≈ 0.0596 µM) | MIC [15]: 0.013 µg/mL (≈ 0.031 µM) | MIC [16]: 0.39 µg/mL (≈ 0.93 µM) | MIC [17]: 0.013 µg/mL (≈ 0.031 µM) | MIC [18]: 0.39 µg/mL (≈ 0.93 µM) | MIC [19]: 0.013 µg/mL (≈ 0.031 µM) | MIC [20, 22]: 0.05 to 3.13 µg/mL (≈ 0.119 to 7.46 µM) | MIC50 [20, 22]: 0.2 µg/mL (≈ 0.477 µM) | MIC90 [20, 23]: 3.13 µg/mL (≈ 7.46 µM) | MIC50 [21]: 1.56 µg/mL (≈ 3.72 µM) | MIC90 [21]: 6.25 µg/mL (≈ 14.9 µM) | MIC ([21]; 25 clinical strains E. faecium): 0.1 to 25 µg/mL (≈ 0.238 to 59.6 µM)

COC[C@@H]1CN(c2c(F)cc3c(=O)c(C(=O)O)c4scc5n4c3c2N(C)C5)CCO1 [Compound (O), 9,1-(Methylimino)methano-7-fluoro-8-[(2S)-2-methoxymethylmorpholino)-5-oxo-5H-thiazolo[3,2-a]quinoline-4-carboxylic acid]
MIC [1]: 0.013 µg/mL (≈ 0.03 µM) | MIC [2]: 0.025 µg/mL (≈ 0.0577 µM) | MIC (Bacillus cereus IAM 1029): 0.025 µg/mL (≈ 0.0577 µM) | MIC [3]: ≤ 0.006 µg/mL | MIC [4]: 0.2 µg/mL (≈ 0.461 µM) | MIC [5]: 0.05 µg/mL (≈ 0.115 µM) | MIC [6]: 0.05 µg/mL (≈ 0.115 µM) | MIC (Enterobacter cloacae 963): 0.78 µg/mL (≈ 1.8 µM) | MIC [7]: 0.05 µg/mL (≈ 0.115 µM) | MIC [8]: 0.05 µg/mL (≈ 0.115 µM) | MIC [9]: 0.013 µg/mL (≈ 0.03 µM) | MIC [10]: 0.1 µg/mL (≈ 0.231 µM) | MIC [11]: 0.05 µg/mL (≈ 0.115 µM) | MIC [12]: 0.013 µg/mL (≈ 0.03 µM) | MIC [13]: 0.013 µg/mL (≈ 0.03 µM) | MIC [14]: 0.025 µg/mL (≈ 0.0577 µM) | MIC [15]: ≤ 0.006 µg/mL | MIC [16]: 0.78 µg/mL (≈ 1.8 µM) | MIC [17]: 0.025 µg/mL (≈ 0.0577 µM) | MIC [18]: 0.78 µg/mL (≈ 1.8 µM) | MIC [19]: 0.013 µg/mL (≈ 0.03 µM) | MIC [20, 22]: 0.05 to 3.13 µg/mL (≈ 0.115 to 7.22 µM) | MIC50 [20, 22]: 0.2 µg/mL (≈ 0.461 µM) | MIC90 [20, 23]: 3.13 µg/mL (≈ 7.22 µM) | MIC50 [21]: 3.13 µg/mL (≈ 7.22 µM) | MIC90 [21]: 6.25 µg/mL (≈ 14.4 µM) | MIC ([21]; 25 clinical strains E. faecium): 0.1 to 12.5 µg/mL (≈ 0.231 to 28.8 µM)

COC[C@H]1CN(c2c(F)cc3c(=O)c(C(=O)O)c4scc5n4c3c2N(C)C5)CCO1 [Compound (P), 9,1-(Methylimino)methano-7-fluoro-8-[(2R)-2-methoxymethylmorpholino)-5-oxo-5H-thiazolo[3,2-a]quinoline-4-carboxylic acid]
MIC [1]: 0.025 µg/mL (≈ 0.0577 µM) | MIC [2]: 0.013 µg/mL (≈ 0.03 µM) | MIC (Bacillus cereus IAM 1029): 0.025 µg/mL (≈ 0.0577 µM) | MIC [3]: ≤ 0.006 µg/mL | MIC [4]: 0.2 µg/mL (≈ 0.461 µM) | MIC [5]: 0.05 µg/mL (≈ 0.115 µM) | MIC [6]: 0.1 µg/mL (≈ 0.231 µM) | MIC (Enterobacter cloacae 963): 1.56 µg/mL (≈ 3.6 µM) | MIC [7]: 0.05 µg/mL (≈ 0.115 µM) | MIC [8]: 0.05 µg/mL (≈ 0.115 µM) | MIC [9]: 0.025 µg/mL (≈ 0.0577 µM) | MIC [10]: 0.2 µg/mL (≈ 0.461 µM) | MIC [11]: 0.1 µg/mL (≈ 0.231 µM) | MIC [12]: ≤ 0.006 µg/mL | MIC [13]: 0.013 µg/mL (≈ 0.03 µM) | MIC [14]: 0.05 µg/mL (≈ 0.115 µM) | MIC [15]: 0.006 µg/mL (≈ 0.0138 µM) | MIC [16]: 1.56 µg/mL (≈ 3.6 µM) | MIC [17]: 0.05 µg/mL (≈ 0.115 µM) | MIC [18]: 0.78 µg/mL (≈ 1.8 µM) | MIC [19]: 0.025 µg/mL (≈ 0.0577 µM) | MIC90 [20]: 6.25 µg/mL (≈ 14.4 µM) | MIC [20, 22]: 0.1 to 6.25 µg/mL (≈ 0.231 to 14.4 µM) | MIC50 [20, 22]: 0.2 µg/mL (≈ 0.461 µM) | MIC50 [21]: 3.13 µg/mL (≈ 7.22 µM) | MIC ([21]; 25 clinical strains E. faecium): 0.2 to 12.5 µg/mL (≈ 0.461 to 28.8 µM) | MIC90 ([21]; 25 clinical strains E. faecium, 90% of strains, read-out: MIC90): 12.5 µg/mL (≈ 28.8 µM)
